Assay results: patent publication US20240197708A1, “TREATMENT OF PRODROMAL HUNTINGTON DISEASE” (Prilenia Neurotherapeutics Ltd., priority 2021, published 2024)

Key:
early-stage HD patients = conditions: disclosed in U.S. Pat. Nos. 10,322,119 and 11,207,310; cited from earlier work
prodromal HD subjects = conditions: 45 mg bid
Method: The efficacy of pridopidine for treating prodromal HD is evaluated in a randomized, double-blind, placebo-controlled trial.

[1] = CSF and/or plasma, 52 weeks, vs placebo

In the case of CCCN1CCC(c2cccc(S(C)(=O)=O)c2)CC1 [Pridopidine, 4-[3-(methylsulfonyl)phenyl]-1-propyl-piperidine], the functional capacity (early-stage HD patients) is listed as “maintains, improves or lessens the decline of functional capacity”, the “DMN and functional connectivity” value (prodromal HD subjects; 52 weeks, vs placebo) is listed as “maintenance of or less worsening” and the PBA-s apathy score (prodromal HD subjects; 52 weeks, vs placebo) is listed as “improvement or less worsening compared to placebo”. For the same molecule, the PBA-s total score (prodromal HD subjects; 52 weeks, vs placebo) was “improvement or less worsening compared to placebo”, the “cognitive assessments by the HD-CAB battery of tests” value (prodromal HD subjects; 52 weeks, vs placebo) was “improves or maintains or show less worsening compared to placebo” and the “cognitive assessments by the SDMT” value (prodromal HD subjects; 52 weeks, vs placebo) was “improves, maintains or shows less decline”. The cortical thickness (prodromal HD subjects; 52 weeks, vs placebo) was “no decrease or less decrease compared to placebo”, the “motor measure Q-Motor finger tapping” value (prodromal HD subjects; 52 weeks, vs placebo) was “maintenance, improvement or less decline compared to placebo” and the “motor measure TMS” value (prodromal HD subjects; 52 weeks, vs placebo) was “maintenance, improvement or less decline compared to placebo”. For the same molecule, the total brain volume (prodromal HD subjects; 52 weeks, vs placebo) was “no decrease or less decrease compared to placebo”, the ventricular volume (prodromal HD subjects; 52 weeks, vs placebo) was “decrease or maintenance of ventricular volume or a smaller increase in ventricular volume compared to placebo” and the “volume of the striatal structures caudate and putamen” value (prodromal HD subjects; 52 weeks, vs placebo) was “no decrease or less decrease compared to placebo”. For the same molecule, the “level of fluid biomarker NfL” value (prodromal HD subjects; [1]) was “reduction or maintenance”, the “level of fluid biomarker phospho-tau” value (prodromal HD subjects; [1]) was “reduction or maintenance” and the “level of fluid biomarker proenkephalin” value (prodromal HD subjects; [1]) was “reduction or maintenance”. For the same molecule, the “progression to manifest HD” value (prodromal HD subjects; over the course of the trial (52 weeks), vs placebo group) was “less participants in the pridopidine group progressed to manifest HD compared to the placebo group”.
